Results on 7 compounds are retold here after US8486994B2, “Prodrugs of substituted 1,3-dioxanes and their uses” (Evolva SA, priority 2007, dated 2013).

Read-outs that look alike come from different tables or passages of the source.

The test system of data set [1] is arterial thrombosis in a mouse model. Nature of the data set: FeCl3 arterial thrombosis model (femoral artery, laser Doppler blood flow). It counts as in vivo, mice. As to the method: • Vehicle (DMSO/PEG 400, 5/95) • Dose of 1, 3, 10, 30, 100 and 300 mg/kg of Prodrug 3 in vehicle • Saline • Aspirin (dose of 100 mg and 600 mg/kg in vehicle) • Aspirin (Aspégic from Sanofi Synthelabo; dissolved in Saline) • Clopidogrel (Plavix from Sanofi Pharma; dissolved in H2O)
The solutions are diluted 3.3-fold in saline and 100 μl/25 g is injected. Thus, the above-mentioned doses of 100 and 300 mg/kg of compound correspond to final doses of 30 and 100 mg/kg.
Solutions are injected (100 μl/25 g body weight) i.v. in the tail vein over 2 min to obtain doses of each compound of 30 mg/kg and 100 mg/kg. Aspirin is given the same way at a dose of 200 mg/kg. Clopidogrel is administered by oral gavage at a dose of 20 mg/kg at 6-7 hours prior to the experiment. The animals assigned to each group are matched for body weight. Mice are typically 8-10 weeks old males and are in a 100% Swiss genetic background.
The flow in each image is expressed as a percentage of that at the contralateral side, and data are averaged for all 120 images to determine total flow. The same analysis is performed for 10 min intervals (which gives essentially the same information as the area under the curve). […] Flow before treatment is recorded as 100%, and that in occluded arteries as 0%. At the end of the experiment, blood is collected on 0.01M citrate buffer by heart puncture for determination of blood cell counts. Plasma is prepared by centrifugation and stored at −20° C. for determination of drug levels.
Statistical analysis for differences between two groups is performed by non-parametric Student t-test. Occlusion times >30 min were considered equal to 30 min for statistical analysis. Significance is set at p<0.05.

A short description of data set [2]: Pharmacokinetics (plasma exposure) after i.v. or p.o. dosing, non-compartmental analysis. In kind it is in vivo, male Wistar rats. The note with it: rat; for half-life: read-out: Terminal Half-life elimination, t½z. As to the method: Animals were fasted overnight before dosing p.o. (gavage or capsule) or by bolus intravenous application. Blood samples (approx. 0.15 ml) were taken at different time points into heparinized tubes by automated blood sampling. Plasma was prepared and stored frozen until bioanalysis.
• to an aliquot of 10 μL plasma 30 μL ACN/EtOH (50/50, v/v) are added • vortex • 20 min 14000 rpm approx. 8° C. • Supernatant transfer in HPLC vial Liquid Chromatography
The samples were analyzed by mass spectroscopy using ESI (negative ion mode) as the ionization mode. Selected Reaction Monitoring:
The quantitatively measured plasma concentration-time data were subjected to non-compartmental analysis (NCA) using the PCModfit program (version 3.00) for Windows® running with Excel 2003 (http://home2.btconnect.com/Gamms/PCModfit/; Allen, G. D. ‘Modfit: a pharmacokinetics computer program’ Biopharm. and Drug Disp., Vol. 11, 477-498, 1990). The points selected in each profile for half-life estimation using numerical analysis, where possible, corresponded to the final linear phase as visually assessed from ln(concentration) vs. time plots. The terminal elimination rate constant (λz) for each profile was numerically estimated using iteratively re-weighted non-linear least squares analysis with a weighting factor of 1/Ĉ^2. The area under the concentration-time curve to the last actual time point (AUC0-t) and infinity (AUC0-∞) for each data set were estimated using a linear (ascending) trapezoidal method. The extrapolated area to infinity (AUC0-∞) was estimated, where possible, using AUC0-t and the predicted value (Ĉn) at the last time point for each profile.
[formula] [formula] The Ci values correspond to the actual concentrations of drug at time ti for n data points. The C0 value was extrapolated using the first 4 time points.

The mark [3] stands for this setting: p.o., 10 mg/kg, solid in capsules.
Where [4] appears, read: i.v., 3.53 mg/kg, DMSO/PEG400 (5%/95%).
Setting [5] is: i.v., 3.56 mg/kg, DMSO/PEG400/PBS 1X (5%/30%/65%).

As for `COC(=O)[C@H](c1ccccc1Cl)N1CCc2sccc2C1` [Clopidogrel], the occlusion time result in data set [1] (20 mg/kg oral gavage 6-7 hours prior to the experiment) is on record as “totally prevents occlusion within 30 min in 6/7 experiments”. Besides, the total blood flow result in data set [1] (20 mg/kg oral gavage 6-7 hours prior, versus vehicle) is given as “significantly improved total blood flow”.
By half-life is commonly meant the time in which the quantity being followed falls by half. As a reminder, the Tmax is the time from dosing to the highest level. Turning to `O=C(O)CC/C=C\C[C@@H]1CO[C@H](c2ccccc2Cl)O[C@@H]1c1ccccc1O` [drawing 20], in data set [2] (male, Wistar, plasma, po, 10 mg/kg, p.o., 10 mg/kg, solid in capsules), the half-life was 95 ± 34 min. Also, the Tmax in data set [2] (male, Wistar, plasma, po, 10 mg/kg, p.o., 10 mg/kg, solid in capsules, read-out: Tmax (converted)) was 90 min. For the same compound, in data set [2] (setting [3]), the “Cmax (ng/ml)/Dose (mg/kg)” value is on record as 236 ± 63 (ng/ml)/Dose (mg/kg), the “Lin-AUC (0-∞) (ng•min/ml)/Dose (mg/kg)” value is reported as 27195 ± 4453 (ng•min/ml)/Dose (mg/kg) and the T-Last was in the range of 6 to 12 h.
Turning to `O=C(O)CC/C=C\C[C@@H]1CO[C@H](c2ccccc2Cl)O[C@@H]1c1ccccc1O` [drawing 24], in data set [2] (setting [3]), the “Cmax (ng/ml)/Dose (mg/kg)” value is given as 115 ± 123 (ng/ml)/Dose (mg/kg); the “Lin-AUC (0-∞) (ng•min/ml)/Dose (mg/kg)” value was 17352 ± 14479 (ng•min/ml)/Dose (mg/kg); the T-Last was in the range of 8 to 12 h; the “Terminal Half-life elimination, t½z” value amounted to 133 ± 45 min. Moreover, in data set [2] (setting [3]), the time of peak concentration (Tmax) is listed as 180 ± 127 min.
In the case of `COc1ccccc1[C@H]1OC(c2ccccc2Cl)OC[C@H]1C/C=C\CCC(=O)O` (stereo partly drawn) [Prodrug 3], the total blood flow entry in data set [1] (10 mg/kg in vehicle, i.v.) was “no effect on total blood flow”; in data set [1] (30 mg/kg in vehicle, i.v.) it was “slightly improved total blood flow as compared to aspirin (p=0.055), but not as compared to vehicle”. The occlusion time entry in data set [1] (30 mg/kg in vehicle (DMSO/PEG 400), i.v.) is “prolongs the occlusion time as compared to aspirin (p=0.024) and the parent compound, but has no effect as compared to vehicle”.
For the compound `CC(=O)Oc1ccccc1C(=O)O` [Aspirin], in data set [1] (200 mg/kg i.v.), the occlusion time entry is on record as “no effect on the occlusion time”. Besides, the total blood flow entry in data set [1] (200 mg/kg i.v., versus vehicle) is “no significant effect on the total blood flow”.
As for `COc1ccccc1[C@H]1OC(c2ccccc2Cl)OC[C@H]1C/C=C\CCC(=O)O` (stereo partly drawn) [drawing 19], the half-life in data set [2] (male, Wistar, plasma, iv, 3.53 mg/kg, i.v., 3.53 mg/kg, DMSO/PEG400 (5%/95%)) was determined as 182 ± 55 min. In data set [2] (male, Wistar, plasma, iv, 3.53 mg/kg, i.v., 3.53 mg/kg, DMSO/PEG400 (5%/95%), read-out: Tmax (converted)), the Tmax was 5 min. In data set [2] (setting [4]), the “Cmax (ng/ml)/Dose (mg/kg)” value is listed as 554 ± 154 (ng/ml)/Dose (mg/kg), the “Lin-AUC (0-∞) (ng•min/ml)/Dose (mg/kg)” value is reported as 17416 ± 1734 (ng•min/ml)/Dose (mg/kg) and the T-Last lay in the range of 8 to 12 h.
Regarding `O=C(O)CC/C=C\C[C@@H]1CO[C@H](c2ccccc2Cl)O[C@@H]1c1ccccc1O` [drawing 18], the half-life in data set [2] (male, Wistar, plasma, iv, 3.56 mg/kg, i.v., 3.56 mg/kg, DMSO/PEG400/PBS 1X (5%/30%/65%)) is 46 ± 26 min. In addition, the Tmax in data set [2] (male, Wistar, plasma, iv, 3.56 mg/kg, i.v., 3.56 mg/kg, DMSO/PEG400/PBS 1X (5%/30%/65%), read-out: Tmax (converted)) was 5 min. For the same compound, in data set [2] (setting [5]), the “Cmax (ng/ml)/Dose (mg/kg)” value is 614 ± 68 (ng/ml)/Dose (mg/kg), the “Lin-AUC (0-∞) (ng•min/ml)/Dose (mg/kg)” value is listed as 12050 ± 1835 (ng•min/ml)/Dose (mg/kg) and the T-Last fell in the range of 3 to 6 h.
